Reference: patent US20250340561A1, “QUINAZOLINE COMPOUND FOR INDUCING DEGRADATION OF G12D MUTANT KRAS PROTEIN” (Astellas Pharma Inc., priority 2021, published 2025)

test system: human KRAS G12D mutant-positive PK-59 pancreatic cancer cell line-derived xenograft; experiment: Test Example 4: anti-tumor activity in PK-59 xenograft mice; type: in vivo; details: PK-59 xenograft nude mice, 10 mg/kg into tail vein, twice with an interval of once a week
Procedure: Test Example 4: Evaluation of Anti-Tumor Activity in Human KRAS G12D Mutant-Positive PK-59 Pancreatic Cancer Cell Line-Derived Xenograft Mice
PK-59 cells (RTKEN BRC, RCB 1901) were cultured using a RPMI 1640 medium containing 10% fetal bovine serum in the presence of 5% CO2 at 37° C. The PK-59 cells were collected and suspended in PBS, and after adding an equal amount of Matrigel (from Becton, Dickinson and Company), the cell suspension prepared at 1.0×10^7 to 2.0×10^7 cells/mL was subcutaneously inoculated in a volume of 100 μL in 4- to 6-week-old male nude mice (CAnN.Cg-Foxn1^nu/CrlCrlj (nu/nu), from Charles River Laboratories Japan). About two weeks after the inoculation, the mice were divided into groups so that all the groups had approximately the same tumor volume and body weight, and administration of test compounds was started on the next day. The study was conducted for 5 mice each of a vehicle group and test compound administration groups. The compounds of Example 8, Example 48 and Example 70 were dissolved in a solvent containing ethanol (from FUJIFILM Wako Pure Chemical Corporation), a 5% glucose solution (from Otsuka Pharmaceutical), 1M hydrochloric acid (from Kanto Chemical Co., Inc.), an aqueous 50% (2-hydroxypropyl)-β-cyclodextrin (HP-βCD) solution (from ROQUETTE), HCO-40 (from Nikko Chemicals Co., Ltd.) and an aqueous 1M sodium hydroxide solution (from Kanto Chemical Co., Inc.) at a liquid amount ratio of 4:84.4:1.1:1:9:0.5. The compounds of Example 22 and Example 26 were dissolved in a solvent containing propylene glycol (from FUJIFILM Wako Pure Chemical Corporation), Tween80 (from Nacalai Tesque) and Otsuka normal saline (from Otsuka Pharmaceutical) at a liquid amount ratio of 6.7:3.3:90. The compound of Example 39 was dissolved in a solvent containing propylene glycol, ethanol, an aqueous 50% HP-PCD solution, HCO-40 and a 5% glucose solution at a liquid amount ratio of 10:8:10:10:62. The test compounds dissolved in the respective solvents or the solvents were administered into tail vein. The administration was performed twice with an interval of once a week. The tumor sizes and the body weights were measured twice a week. The tumor volumes were calculated using the following equation.
[Tumor volume (mm^3)]=[Major axis of tumor (mm)]×[Minor axis of tumor (mm)]^2×0.5
The tumor growth inhibitions (%) by the test compounds were calculated with the tumor volumes of the test compound administration groups on the previous day of the start of the administration taken as 100% inhibition and the tumor volumes of the vehicle groups two weeks after the initial administration taken as 0% inhibition. In addition, when the tumor volume of a test compound administration group was smaller than the tumor volume on the previous day of the start of the administration, the tumor regression (%) by the test compound was calculated with the tumor volume on the previous day of the start of the administration taken as 0% regression and with the tumor volume 0 taken as 100% regression. The molecular weights of the test compounds were calculated as the molecular weights of the dihydrochloride for Example No. 22 and the free forms forming no salt for the remaining Example Nos. The results for some test compounds of the formula (I) are shown in Table 5.

**Q.** How did the “Anti-Tumor Activity Two Weeks After Initial Administration (tumor growth inhibition)” value turn out when `Cc1ncsc1-c1ccc([C@H](CO)NC(=O)[C@@H]2C[C@@H](O)CN2C(=O)[C@H](C(C)C)n2cc(-c3ccc(COc4c(-c5c(C)c(F)cc6[nH]ncc56)c(C5CC5)cc5c(N6C[C@@H]7C[C@H]6CN7)nc(OC6CCOCC6)nc45)cc3)nn2)cc1` [Example 8, (4R)-1-[(2S)-2-(4-{4-[({6-cyclopropyl-4-[(1S,4S)-2,5-diazabicyclo[2.2.1]heptan-2-yl]-7-(6-fluoro-5-methyl-1H-indazol-4-yl)-2-[(oxan-4-yl)oxy]quinazolin-8-yl}oxy)methyl]phenyl}-1H-1,2,3-triazol-1-yl)-3-methylbutanoyl]-4-hydroxy-N-{(1R)-2-hydroxy-1-[4-(4-methyl-1,3-thiazol-5-yl)phenyl]ethyl}-L-prolinamide] was run?
**A.** 98% inhibition

**Q.** For `CCn1nccc1-c1ccc([C@H](CO)NC(=O)[C@@H]2C[C@@H](O)CN2C(=O)[C@H](C(C)C)n2cc(-c3ccc(COc4c(-c5c(C)c(F)cc6[nH]ncc56)c(C5CC5)cc5c(N6C[C@@H]7C[C@H]6CN7)nc(OC6CCOCC6)nc45)cc3)nn2)cc1` [Example 26], which “Anti-Tumor Activity Two Weeks After Initial Administration (tumor growth inhibition)” value is on record?
**A.** 94% inhibition

**Q.** Which “Anti-Tumor Activity Two Weeks After Initial Administration (tumor regression)” value does the source give for `CCn1nccc1-c1ccc([C@H](CO)NC(=O)[C@@H]2C[C@@H](O)CN2C(=O)[C@H](C(C)C)n2cc(-c3ccc(COc4c(-c5c(C)c(F)cc6[nH]ncc56)c(C5CC5)cc5c(N6C[C@@H]7C[C@H]6CN7)nc(OC[C@H](C)OC)nc45)cc3)nn2)cc1` [Example 70] here?
**A.** 42% regression

**Q.** For `CO[C@H](C)[C@@H](C)Oc1nc(N2C[C@@H]3C[C@H]2CN3)c2cc(C3CC3)c(-c3c(C)c(F)cc4[nH]ncc34)c(OCc3ccc(-c4cn([C@H](C(=O)N5C[C@H](O)C[C@H]5C(=O)N[C@@H](CO)c5ccc(-c6scnc6C)cc5)C(C)C)nn4)cc3)c2n1` [Example 39], which “Anti-Tumor Activity Two Weeks After Initial Administration (tumor regression)” value is on record?
**A.** 13% regression

**Q.** With `Cc1c(F)cc2[nH]ncc2c1-c1c(C2CC2)cc2c(N3C[C@@H]4C[C@H]3CN4)nc(OC3CCOCC3)nc2c1OCc1ccc(-c2cn([C@H](C(=O)N3C[C@H](O)C[C@H]3C(=O)N[C@@H](CO)c3ccc(-c4ccnn4C)cc3)C(C)C)nn2)cc1` [Example 22] as the compound, how does the “Anti-Tumor Activity Two Weeks After Initial Administration (tumor growth inhibition)” value read?
**A.** 93% inhibition

**Q.** With `CO[C@@H](C)COc1nc(N2C[C@@H]3C[C@H]2CN3)c2cc(C3CC3)c(-c3c(C)c(F)cc4[nH]ncc34)c(OCc3ccc(-c4cn([C@H](C(=O)N5C[C@H](O)C[C@H]5C(=O)N[C@@H](CO)c5ccc(-c6scnc6C)cc5)C(C)C)nn4)cc3)c2n1` [Example 48] as the compound, how does the “Anti-Tumor Activity Two Weeks After Initial Administration (tumor regression)” value read?
**A.** 32% regression
